Patent US20240092784A1, “CONDENSED HETEROCYCLIC COMPOUND” (NISSAN CHEMICAL CORPORATION, priority 2020, published 2024)
Counter-ions that a name gives are not always drawn.

Target: human SPR (Homo sapiens (Human), UniProt P35270)
Assay: Evaluation Example 2: Measurement of human SPR inhibitory activity (seven concentrations, sepiapterin absorbance at 420 nm)
Assay type: biochemical
Details: Evaluation Example 2, seven concentrations 0.14 nM to 100 nM, 240 minutes at room temperature, read-out: IC50
In short: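 His-tagged full-length human SPR (1-261) was expressed in E. coli and the tag removed. Enzyme at 150 ng/mL in 100 mM Tris-HCl pH 7.5/0.01% BSA was mixed with compound (0.14–100 nM, seven points), 120 μM sepiapterin and 160 μM NADPH, both as added-solution concentrations. After 240 min at room temperature, remaining sepiapterin was read at 420 nm to give percent inhibition.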

Chain of human SPR (P35270 whole entry): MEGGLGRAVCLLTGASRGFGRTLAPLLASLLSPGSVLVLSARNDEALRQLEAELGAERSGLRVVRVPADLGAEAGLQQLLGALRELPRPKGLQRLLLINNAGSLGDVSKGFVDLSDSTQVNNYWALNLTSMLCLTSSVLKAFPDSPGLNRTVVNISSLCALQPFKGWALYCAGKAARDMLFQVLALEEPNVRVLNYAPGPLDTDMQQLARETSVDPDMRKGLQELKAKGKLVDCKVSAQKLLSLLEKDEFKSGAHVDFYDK

| SMILES | IC50 [nM] |
| --- | --- |
| CC(C)(C)Cn1c(=O)c(C(=O)NC2CC2)c(O)n2nc(Nc3cnc(C(C)(F)F)cn3)cc12 [Synthesis Example 344, N-Cyclopropyl-2-((5-(1,1-difluoroethyl)pyrazin-2-yl)amino)-7-hydroxy-4-neopentyl-5-oxo-4,5-dihydropyrazolo[1,5-a]pyrimidine-6-carboxamide] | 1.69 |
| CC(C)(C)Cn1c(=O)c(C(=O)NC2CC2)c(O)n2nc(Nc3cncc(C(N)=O)n3)cc12 [Synthesis Example 345, 2-((6-Carbamoylpyrazin-2-yl)amino)-N-cyclopropyl-7-hydroxy-4-neopentyl-5-oxo-4,5-dihydropyrazolo[1,5-a]pyrimidine-6-carboxamide] | 0.92 |
| Cn1ccc(Nc2cc3n(CC(C)(C)C)c(=O)c(C(=O)NC4CC4)c(O)n3n2)n1 [Synthesis Example 346, N-Cyclopropyl-7-hydroxy-2-((1-methyl-1H-pyrazol-3-yl)amino)-4-neopentyl-5-oxo-4,5-dihydropyrazolo[1,5-a]pyrimidine-6-carboxamide] | 1.77 |
| CC(C)(C)Cn1c(=O)c(C(=O)NCC(F)(F)F)c(O)n2nc(Nc3cnccn3)cc12 [Synthesis Example 347, 7-Hydroxy-4-neopentyl-5-oxo-2-(pyrazin-2-ylamino)-N-(2,2,2-trifluoroethyl)-4,5-dihydropyrazolo[1,5-a]pyrimidine-6-carboxamide] | 1.87 |
| CC(C)Cn1c(=O)c(C(=O)NCC(F)(F)F)c(O)n2nc(Nc3cnccn3)cc12 [Synthesis Example 348, 7-Hydroxy-4-isobutyl-5-oxo-2-(pyrazin-2-ylamino)-N-(2,2,2-trifluoroethyl)-4,5-dihydropyrazolo[1,5-a]pyrimidine-6-carboxamide] | 2.84 |
| CC(C)(C)Cn1c(=O)c(C(=O)NC2CC2)c(O)n2nc(Nc3cnc(C(C)(C)O)cn3)cc12 [Synthesis Example 349, N-Cyclopropyl-7-hydroxy-2-((5-(2-hydroxypropan-2-yl)pyrazin-2-yl)amino)-4-neopentyl-5-oxo-4,5-dihydropyrazolo[1,5-a]pyrimidine-6-carboxamide] | 1.36 |
| O=C(NC1CC1)c1c(O)n2nc(Nc3cnccn3)cc2n(CC2CCOCC2)c1=O [Synthesis Example 350, N-Cyclopropyl-7-hydroxy-5-oxo-2-(pyrazin-2-ylamino)-4-((tetrahydro-2H-pyran-4-yl)methyl)-4,5-dihydropyrazolo[1,5-a]pyrimidine-6-carboxamide] | 0.75 |
| CC(C)(C)Cn1c(=O)c(C(=O)NC2CC2)c(O)n2nc(Nc3ccnc(C(N)=O)n3)cc12 [Synthesis Example 351, 2-((2-Carbamoylpyrimidin-4-yl)amino)-N-cyclopropyl-7-hydroxy-4-neopentyl-5-oxo-4,5-dihydropyrazolo[1,5-a]pyrimidine-6-carboxamide] | 0.9 |
| CC(C)(C)Cn1c(=O)c(C(=O)NC2CC2)c(O)n2nc(Nc3cnc(C(=O)NCC(F)(F)F)cn3)cc12 [Synthesis Example 352, N-Cyclopropyl-7-hydroxy-4-neopentyl-5-oxo-2-((5-((2,2,2-trifluoroethyl)carbamoyl)pyrazin-2-yl)amino)-4,5-dihydropyrazolo[1,5-a]pyrimidine-6-carboxamide] | 1.04 |
| CC(C)(C)Cn1c(=O)c(C(=O)NC2CC2)c(O)n2nc(Nc3cnc(C(=O)NCC(F)F)cn3)cc12 [Synthesis Example 353, N-Cyclopropyl-2-((5-((2,2-difluoroethyl)carbamoyl)pyrazin-2-yl)amino)-7-hydroxy-4-neopentyl-5-oxo-4,5-dihydropyrazolo[1,5-a]pyrimidine-6-carboxamide] | 0.82 |
| CC(C)(C)Cn1c(=O)c(C(=O)NC2CC2)c(O)n2nc(Nc3cnc(C(=O)NCC(C)(C)O)cn3)cc12 [Synthesis Example 354, N-Cyclopropyl-7-hydroxy-2-((5-((2-hydroxy-2-methylpropyl)carbamoyl)pyrazin 2-yl)amino)-4-neopentyl-5-oxo-4,5-dihydropyrazolo[1,5-a]pyrimidine-6-carboxamide] | 0.86 |
| CC(C)(C)Cn1c(=O)c(C(=O)NC2CC2)c(O)n2nc(Nc3cnc(C(=O)N4CCC(F)(F)CC4)cn3)cc12 [Synthesis Example 355, N-Cyclopropyl-2-((5-(4,4-difluoropiperidine-1-carbonyl)pyrazin-2-yl)amino)-7-hydroxy-4-neopentyl-5-oxo-4,5-dihydropyrazolo[1,5-a]pyrimidine-6-carboxamide] | 1.1 |
| CC(C)(C)Cn1c(=O)c(C(=O)NC2CC2)c(O)n2nc(Nc3cncc(F)n3)cc12 [Synthesis Example 356, N-Cyclopropyl-2-((6-fluoropyrazin-2-yl)amino)-7-hydroxy-4-neopentyl-5-oxo-4,5-dihydropyrazolo[1,5-a]pyrimidine-6-carboxamide] | 1.16 |
| Cn1ccnc1Nc1cc2n(CC(C)(C)C)c(=O)c(C(=O)NC3CC3)c(O)n2n1 [Synthesis Example 357, N-Cyclopropyl-7-hydroxy-2-((1-methyl-1H-imidazol-2-yl)amino)-4-neopentyl-5-oxo-4,5-dihydropyrazolo[1,5-a]pyrimidine-6-carboxamide] | 1.5 |
| CN(CC#N)C(=O)c1cnc(Nc2cc3n(CC(C)(C)C)c(=O)c(C(=O)NC4CC4)c(O)n3n2)cn1 [Synthesis Example 358, 2-((5-((Cyanomethyl)(methyl)carbamoyl)pyrazin-2-yl)amino)-N-cyclopropyl-7-hydroxy-4-neopentyl-5-oxo-4,5-dihydropyrazolo[1,5-a]pyrimidine-6-carboxamide] | 0.87 |
| CC(C)(C)Cn1c(=O)c(C(=O)NC2CC2)c(O)n2nc(Nc3cnc(C(=O)N4CCC(C#N)CC4)cn3)cc12 [Synthesis Example 359, 2-((5-(4-Cyanopiperidine-1-carbonyl)pyrazin-2-yl)amino)-N-cyclopropyl-7-hydroxy-4-neopentyl-5-oxo-4,5-dihydropyrazolo[1,5-a]pyrimidine-6-carboxamide] | 0.88 |
| CC(C)(C)Cn1c(=O)c(C(=O)NC2CC2)c(O)n2nc(Nc3cnc(C(=O)N4CC[C@H](O)C4)cn3)cc12 [Synthesis Example 360, (S)-N-Cyclopropyl-7-hydroxy-2-((5-(3-hydroxypyrrolidine-1-carbonyl)pyrazin-2-yl)amino)-4-neopentyl-5-oxo-4,5-dihydropyrazolo[1,5-a]pyrimidine-6-carboxamide] | 0.76 |
| CC(C)(C)Cn1c(=O)c(C(=O)NC2CC2)c(O)n2nc(Nc3ncco3)cc12 [Synthesis Example 361, N-Cyclopropyl-7-hydroxy-4-neopentyl-2-(oxazol-2-ylamino)-5-oxo-4,5-dihydropyrazolo[1,5-a]pyrimidine-6-carboxamide] | 1.42 |
| CN(C)/C=N/c1cc2n(CC(C)(C)C)c(=O)c(C(=O)NC3CC3)c(O)n2n1 [Synthesis Example 362, (E)-N-Cyclopropyl-2-(((dimethylamino)methylene)amino)-7-hydroxy-4-neopentyl-5-oxo-4,5-dihydropyrazolo[1,5-a]pyrimidine-6-carboxamide hydrochloride] | 1.48 |
| CC(C)Cn1c(=O)c(C(=O)NC2CC2)c(O)n2nc(/N=C/N(C)C)cc12 [Synthesis Example 363, (E)-N-Cyclopropyl-2-(((dimethylamino)methylene)amino)-7-hydroxy-4-isobutyl-5-oxo-4,5-dihydropyrazolo[1,5-a]pyrimidine-6-carboxamide hydrochloride] | 1.61 |
| O=C(NC1CC1)c1c(O)n2ncc(/C=C/C(=O)N3CCOCC3)c2n(CC2(F)CC2)c1=O [Synthesis Example 364, (E)-N-Cyclopropyl-4-((1-fluorocyclopropyl)methyl)-7-hydroxy-3-(3-morpholino-3-oxoprop-1-en-1-yl)-5-oxo-4,5-dihydropyrazolo[1,5-a]pyrimidine-6-carboxamide] | 0.63 |
| COC(C)(C)Cn1c(=O)c(C(=O)NC2CC2)c(O)n2ncc(/C=C/C(=O)N3CCOCC3)c12 [Synthesis Example 365, (E)-N-Cyclopropyl-7-hydroxy-4-(2-methoxy-2-methylpropyl)-3-(3-morpholino-3-oxoprop-1-en-1-yl)-5-oxo-4,5-dihydropyrazolo[1,5-a]pyrimidine-6-carboxamide] | 0.65 |
| CC1(Cn2c(=O)c(C(=O)NC3CC3)c(O)n3ncc(/C=C/C(=O)N4CCOCC4)c23)CC1 [Synthesis Example 366, (E)-N-Cyclopropyl-7-hydroxy-4-((1-methylcyclopropyl)methyl)-3-(3-morpholino-3-oxoprop-1-en-1-yl)-5-oxo-4,5-dihydropyrazolo[1,5-a]pyrimidine-6-carboxamide] | 0.75 |
| CC1(Cn2c(=O)c(C(=O)NC3CC3)c(O)n3ncc(/C=C/C(=O)N4C5CCC4COC5)c23)CC1 [Synthesis Example 367, (E)-3-(3-(3-Oxa-8-azabicyclo[3.2.1]octan-8-yl)-3-oxoprop-1-en-1-yl)-N-cyclopropyl-7-hydroxy-4-((1-methylcyclopropyl)methyl)-5-oxo-4,5-dihydropyrazolo[1,5-a]pyrimidine-6-carboxamide] | 0.62 |
| CC1(Cn2c(=O)c(C(=O)NC3CC3)c(O)n3ncc(/C=C/C(=O)N4CC5CCC(C4)O5)c23)CC1 [Synthesis Example 368, (E)-3-(3-(8-Oxa-3-azabicyclo[3.2.1]octan-3-yl)-3-oxoprop-1-en-1-yl)-N-cyclopropyl-7-hydroxy-4-((1-methylcyclopropyl)methyl)-5-oxo-4,5-dihydropyrazolo[1,5-a]pyrimidine-6-carboxamide] | 0.61 |
| C[C@H]1COCCN1C(=O)/C=C/c1cnn2c(O)c(C(=O)NC3CC3)c(=O)n(CC3(C)CC3)c12 [Synthesis Example 369, (S,E)-N-Cyclopropyl-7-hydroxy-4-((1-methylcyclopropyl)methyl)-3-(3-(3-methylmorpholino)-3-oxoprop-1-en-1-yl)-5-oxo-4,5-dihydropyrazolo[1,5-a]pyrimidine-6-carboxamide] | 0.58 |
